Measured values: US20160303360A1, “Ultrasonic Transducer and Transdermal Delivery System” (Actuated Medical, Inc., priority 2015, published 2016)

Legend:
[1] = in vivo; details: pig
[2] = pig, in vivo
[3] = human, in vivo, sc; cited from earlier work

Question: With enfuvirtide as the substance, how does the bioavailability [1] read?
Answer: Its bioavailability is roughly 30%.

Question: And the “difference in TEWL between treatment site and control site” value [2]?
Answer: Its value is “not statistically different”.

Question: And the “patients experiencing injection site reaction” value [3]?
Answer: The value was “up to 98%”.
